Measured values taken from patent US20240376097A1, “BCL-2 Inhibitor” (BeiGene Ltd., priority 2020, published 2024).
Like-named read-outs stand apart in the source and are kept apart here.

Assays:
[1] = molecular target: Recombinant human Bcl-2 protein (Homo sapiens (Human), UniProt P10415); assay: Bcl-2 TR-FRET Assay; format: binding
Protocol: Biological Example: Bcl-2 TR-FRET Assay
Compounds disclosed herein were tested for blocking of Bcl-2 protein with its ligand in an assay based on Time-Resolved Fluorescence Resonance Energy Transfer (TR-FRET) methodology. Recombinant human 0.05 nM Bcl-2 protein was pre-incubated with a serial dilution of compounds disclosed herein (top final concentration is 1 uM or 0.1 uM or 0.02 uM or 0.01 uM, 10 points) at room temperature for 0.5 hour in an assay buffer containing 20 mM potassium phosphate buffer, pH 7.5, 50 mM NaCl. 1 mM EDTA, 0.05% Tween-20, 0.01% BSA. Then the FITC labeled Bak peptide Ac-GQVGRQLAIIGDK(FITC)INR-amide (0.5 nM) and MAb Anti 6His Tb cryptate Gold were added to plate and further incubated at room temperature for 1 hour. The TR-FRET signals (337 nm-520 nm-490 nm) were read on BMG PHERAstar FSX instrument. The inhibition percentage of Bcl-2 interaction with its ligand in presence of increasing concentrations of compounds was calculated based on the TR-FRET signals. The IC50 for each compound was derived from fitting the data to the four-parameter logistic equation by Graphpad Prism software or Dotmatics.

[2] = molecular target: recombinant human Bcl-2 D103Y protein (Homo sapiens (Human), UniProt P10415, D103Y); assay: Bcl-2-D103Y Biochemical Assay (TR-FRET); format: binding; details: for IC50: TR-FRET, FITC labeled Bak peptide; for Ratio of Bcl-2 D103Y/Bcl-2 WT: ratio of IC50
Protocol: Biological Example: Bcl-2-D103Y Biochemical Assay
(§1) […]. The TR-FRET signals (ex337 nm, em490 nm/520 nm) were read on BMG PHERAstar FSX instrument. The inhibition percentage of Bcl-2 D103Y interaction with its ligand in presence of increasing concentrations of compounds was calculated based on the ratio of fluorescence at 490 nm to that at 520 nm. The IC50 for each compound was derived from fitting the data to the four-parameter logistic equation by Dotmatics.

[3] = tested on: recombinant human Bcl-2-G101V protein; assay: Bcl-2-G101V TR-FRET Assay; format: binding; details: ratio of biochemical IC50 Bcl-2 G101V / Bcl-2 WT
Protocol: (§2) Biological Example: Bcl-2-G101V TR-FRET Assay
as §1, with “Bcl-2-G101V” for “Bcl-2 D103Y”, “by Graphpad Prism software or” for “by”

[4] = molecular target: recombinant human Bcl-2-G101V protein (Homo sapiens (Human), UniProt P10415, G101V); assay: Bcl-2-G101V TR-FRET Assay; format: binding; details: Bcl-2 G101V mutant, TR-FRET; read-out: Biochemical assay (IC50, nM) Bcl-2 G101V
Protocol: as §2
as §1, with “Bcl-2-G101V” for “Bcl-2 D103Y”, “by Graphpad Prism software or” for “by”

[5] = tested on: RS4;11 (BCL-2 dependent acute lymphoblastic leukemia cell line); assay: RS4;11 Cell Proliferation Assay; format: cell-based; details: read-out: Cellular proliferation assay (IC50, nM) RS4
Protocol: Biological Example: RS4;11 Cell Proliferation Assay
The BCL-2 dependent acute lymphoblastic leukemia (ALL) cell line, RS4;11, was used to study the cellular potency of BCL-2 inhibitors. The cells (ATCC, CRL-1873) were cultured in RPMI-1640 complete medium (RPMI-1640 medium, HEPES (Gibco, 22400-105) supplemented with 10% fetal bovine serum (FBS) (Gibco, 10099-1441), 100 unit/ml penicillin and 100 μg/ml streptomycin (Gibco, 15140122)) and maintained in a humidified chamber at 37° C. containing 5% CO2. Each compound was serially diluted with 1 μM as the maximum concentration. To test the apoptotic effect of the compounds, the cells were seeded at 50,000 in 180 μl per well in 96-well plates and treated with 10-point dilution series of each compound for 48 hrs at 37° C. Cell viability was assessed after the treatment using CellTiter-GLO luminescent assay (Promega) according to the manufacturer's recommendations. Briefly, 30 μl of CellTiter-GLO reagent was added into 200 μl of cell culture. Mixture was agitated on an orbital shaker for 5 min to ensure cell lysis followed by 7 min incubation at room temperature to allow development and stabilization of luminescent signals, which corresponded to the quantity of ATP and thus the quantity of metabolically active cells. Luminescent signals were measured using PHERAstar FS reader (BMG). Mean IC50 values were determined with GraphPad Prism software.

[6] = Bcl-2 wild type, TR-FRET, read-out: Biochemical assay (IC50, nM) Bcl-2 WT
[7] = wild type Bcl-2, unit inferred, read-out: Bcl-2 WT

Row | Structure (SMILES) | IC50 [1, 6] [nM] | IC50 [1, 7] [nM] | IC50 [2] [nM] | Ratio of Bcl-2 D103Y/Bcl-2 WT [2] | Ratio of Bcl-2 G101V/WT [3] | IC50 [4] [nM] | IC50 ([5]; RS4;11 cells) [nM] | IC50 ([5]; Homo sapiens, RS4-11, RS4;11 cells) [nM]
1 | CC(C)c1ccccc1C1CN(Cc2ccc(OC(F)(F)F)cc2)CCN1C1CC2(CCN(c3ccc(C(=O)NS(=O)(=O)c4ccc(NC[C@H]5CC[C@](C)(O)CC5)c([N+](=O)[O-])c4)c(Oc4cnc5[nH]ccc5c4)c3)CC2)C1 (stereo partly shown) [Example 39, 2-((1H-pyrrolo[2,3-b]pyridin-5-yl)oxy)-N-((4-((((1r,4r)-4-hydroxy-4-methylcyclohexyl)methyl)amino)-3-nitrophenyl)sulfonyl)-4-(2-(2-(2-isopropylphenyl)-4-(4-(trifluoromethoxy)benzyl)piperazin-1-yl)-7-azaspiro[3.5]nonan-7-yl)benzamide] | 1.1 | 1.1 | 3.8 | 3.5 | 6.1 | 6.7 |  | 
2 | COc1ccc(CN2CCN(C3CC4(CCN(c5ccc(C(=O)NS(=O)(=O)c6ccc(NCC7(F)CCC(C)(O)CC7)c([N+](=O)[O-])c6)c(Oc6cnc7[nH]ccc7c6)c5)CC4)C3)[C@H](c3ccccc3C(C)C)C2)cc1 (stereo partly drawn) [Example 226, (R)-2-((1H-pyrrolo[2,3-b]pyridin-5-yl)oxy)-N-((4-(((1-fluoro-4-hydroxy-4-methylcyclohexyl)methyl)amino)-3-nitrophenyl)sulfonyl)-4-(2-(2-(2-isopropylphenyl)-4-(4-methoxybenzyl)piperazin-1-yl)-7-azaspiro[3.5]nonan-7-yl) benzamide] | 0.17 | 0.17 | 0.16 | 1 | 3.9 | 0.64 |  | 
3 | CNc1ccc(CN2CCN(C3CC4(C3)CN(c3ccc(C(=O)NS(=O)(=O)c5ccc(NC[C@H]6CC[C@](C)(O)CC6)c([N+](=O)[O-])c5)c(Oc5cnc6[nH]cc(F)c6c5)c3)C4)[C@H](c3ccccc3C(C)C)C2)cc1OC [Example 358, 2-((3-fluoro-1H-pyrrolo[2,3-b]pyridin-5-yl)oxy)-N-((4-((((1r,4r)-4-hydroxy-4-methylcyclohexyl)methyl)amino)-3-nitrophenyl)sulfonyl)-4-(6-((R)-2-(2-isopropylphenyl)-4-(3-methoxy-4-(methylamino)benzyl)piperazin-1-yl)-2-azaspiro[3.3]heptan-2-yl) benzamide] | 0.1 | 0.1 | 0.11 | 1.1 | 2.4 | 0.24 |  | 
4 | COc1cc(CN2CCN(C3CC4(CCN(c5ccc(C(=O)NS(=O)(=O)c6ccc(NC[C@H]7CC[C@](C)(O)CC7)c([N+](=O)[O-])c6)c(Oc6cnc7[nH]cc(F)c7c6)c5)CC4)C3)[C@H](c3ccccc3C(C)C)C2)ccc1C(F)(F)F [Example 279] | 2 |  |  |  | 3.2 | 6.3 |  | 
5 | CC(C)c1ccccc1[C@@H]1CN(Cc2ccc(C3CCOC3)cc2)CCN1C1CC2(C1)CN(c1ccc(C(=O)NS(=O)(=O)c3ccc(NCC4CCC(C)(O)CC4)c([N+](=O)[O-])c3)c(Oc3cnc4[nH]cc(F)c4c3)c1)C2 (stereo partly drawn) [Example 371, 2-((3-fluoro-1H-pyrrolo[2,3-b]pyridin-5-yl)oxy)-N-((4-((((1r,4r)-4-hydroxy-4-methylcyclohexyl)methyl)amino)-3-nitrophenyl)sulfonyl)-4-(6-((2R)-2-(2-isopropylphenyl)-4-(4-(tetrahydrofuran-3-yl)benzyl)piperazin-1-yl)-2-azaspiro[3.3]heptan-2-yl)benzamide] | 0.12 |  | 0.31 | 2.6 | 2.7 | 0.32 |  | 
6 | CC(C)c1ccccc1C1CN(C(C)c2ccccc2)CCN1C1CC2(CCN(c3ccc(C(=O)NS(=O)(=O)c4ccc(NC[C@H]5CC[C@](C)(O)CC5)c([N+](=O)[O-])c4)c(Oc4cnc5[nH]ccc5c4)c3)CC2)C1 (single isomer, unassigned) [Example 24a, 2-((1H-pyrrolo[2,3-b]pyridin-5-yl)oxy)-N-((4-((((1r,4r)-4-hydroxy-4-methylcyclohexyl)methyl)amino)-3-nitrophenyl)sulfonyl)-4-(2-(2-(2-isopropylphenyl)-4-(1-phenylethyl)piperazin-1-yl)-7-azaspiro[3.5]nonan-7-yl)benzamide] | 0.37 |  |  |  | 18.6 | 6.9 | 3.4 | 
7 | CC(C)c1ccccc1C1CN(C2CCOC2)CCN1C1CC2(CCN(c3ccc(C(=O)NS(=O)(=O)c4ccc(NC[C@H]5CC[C@](C)(O)CC5)c([N+](=O)[O-])c4)c(Oc4cnc5[nH]ccc5c4)c3)CC2)C1 (stereo partly shown) [Example 8, 2-((1H-pyrrolo[2,3-b]pyridin-5-yl)oxy)-N-((4-((((1r,4r)-4-hydroxy-4-methylcyclohexyl)methyl)amino)-3-nitrophenyl)sulfonyl)-4-(2-(2-(2-isopropylphenyl)-4-(tetrahydrofuran-3-yl)piperazin-1-yl)-7-azaspiro[3.5]nonan-7-yl)benzamide] | 0.02 |  |  |  | 16.0 | 0.32 |  | 
8 | CC(C)c1ccccc1C1CN(c2ccccc2)CCN1C1CC2(CCN(c3ccc(C(=O)NS(=O)(=O)c4ccc(NC[C@H]5CC[C@](C)(O)CC5)c([N+](=O)[O-])c4)c(Oc4cnc5[nH]ccc5c4)c3)CC2)C1 (stereo partly shown) [Example 65, 2-((1H-pyrrolo[2,3-b]pyridin-5-yl)oxy)-N-((4-((((1r,4r)-4-hydroxy-4-methylcyclohexyl)methyl)amino)-3-nitrophenyl)sulfonyl)-4-(2-(2-(2-isopropylphenyl)-4-phenylpiperazin-1-yl)-7-azaspiro [3.5]nonan-7-yl)benzamide] | 0.86 |  |  |  | 62.8 | 54 |  | 5.9
9 | COc1cc(CN2CCN(C3CC4(CCN(c5ccc(C(=O)NS(=O)(=O)c6ccc(NC[C@H]7CC[C@](C)(O)CC7)c([N+](=O)[O-])c6)c(Oc6cnc7[nH]ccc7c6)c5)CC4)C3)[C@H](c3ccccc3C(C)C)C2)cc2c1OCC2(C)C [Example 286, 2-((1H-pyrrolo[2,3-b]pyridin-5-yl)oxy)-N-((4-((((1r,4r)-4-hydroxy-4-methylcyclohexyl)methyl)amino)-3-nitrophenyl)sulfonyl)-4-(2-((R)-2-(2-isopropylphenyl)-4-((7-methoxy-3,3-dimethyl-2,3-dihydrobenzofuran-5-yl)methyl)piperazin-1-yl)-7-azaspiro[3.5]nonan-7-yl)benzamide] | 0.1 | 0.1 | 0.19 | 1.9 | 4.8 | 0.48 |  | 
